Source: a compilation of properties of binary mixtures (doi:10.1016/j.molliq.2020.114841)

Assay: xn = mol fraction of the nth substance listed
Details: 101.3 kPa

CS(C)=O + CCOCC[n+]1ccn(CCC#N)c1.O=S(=O)([N-]S(=O)(=O)C(F)(F)F)C(F)(F)F
electrical conductivity (293.15 K, x2 = 0): 0.0006 S/m | viscosity (293.15 K, x2 = 0): 2.48 mPa·s | electrical conductivity (303.15 K, x2 = 0): 0.0009 S/m | viscosity (303.15 K, x2 = 0): 2.025 mPa·s | electrical conductivity (313.15 K, x2 = 0): 0.0012 S/m | viscosity (313.15 K, x2 = 0): 1.619 mPa·s | electrical conductivity (323.15 K, x2 = 0): 0.0015 S/m | viscosity (323.15 K, x2 = 0): 1.433 mPa·s

CS(C)=O + COCCOCCn1cc[n+](CCC#N)c1.O=S(=O)([N-]S(=O)(=O)C(F)(F)F)C(F)(F)F
electrical conductivity (293.15 K, x2 = 0): 0.0006 S/m | viscosity (293.15 K, x2 = 0): 2.479 mPa·s | electrical conductivity (303.15 K, x2 = 0): 0.0009 S/m | viscosity (303.15 K, x2 = 0): 2.025 mPa·s | electrical conductivity (313.15 K, x2 = 0): 0.0012 S/m | viscosity (313.15 K, x2 = 0): 1.619 mPa·s | electrical conductivity (323.15 K, x2 = 0): 0.0015 S/m | viscosity (323.15 K, x2 = 0): 1.433 mPa·s

CCOCC[n+]1ccn(CCC#N)c1.O=S(=O)([N-]S(=O)(=O)C(F)(F)F)C(F)(F)F + CS(C)=O
electrical conductivity (293.15 K, x1 = 0.0989): 0.0011 S/m | viscosity (293.15 K, x1 = 0.0989): 8.21 mPa·s | electrical conductivity (293.15 K, x1 = 0.1981): 0.004 S/m | viscosity (293.15 K, x1 = 0.1981): 10.18 mPa·s | electrical conductivity (293.15 K, x1 = 0.2776): 0.0096 S/m | viscosity (293.15 K, x1 = 0.2776): 16.76 mPa·s | electrical conductivity (293.15 K, x1 = 0.3971): 0.0179 S/m | viscosity (293.15 K, x1 = 0.3971): 25.7 mPa·s | electrical conductivity (293.15 K, x1 = 0.5029): 0.0284 S/m | viscosity (293.15 K, x1 = 0.5029): 40.9 mPa·s | electrical conductivity (293.15 K, x1 = 0.721): 0.0472 S/m | viscosity (293.15 K, x1 = 0.721): 72.2 mPa·s | electrical conductivity (293.15 K, x1 = 1): 0.057 S/m | viscosity (293.15 K, x1 = 1): 401 mPa·s | electrical conductivity (303.15 K, x1 = 0.0989): 0.0013 S/m | viscosity (303.15 K, x1 = 0.0989): 5.53 mPa·s | electrical conductivity (303.15 K, x1 = 0.1981): 0.0048 S/m | viscosity (303.15 K, x1 = 0.1981): 7.07 mPa·s | electrical conductivity (303.15 K, x1 = 0.2776): 0.0117 S/m | viscosity (303.15 K, x1 = 0.2776): 11.64 mPa·s | electrical conductivity (303.15 K, x1 = 0.3971): 0.0218 S/m | viscosity (303.15 K, x1 = 0.3971): 17 mPa·s | electrical conductivity (303.15 K, x1 = 0.5029): 0.0351 S/m | viscosity (303.15 K, x1 = 0.5029): 28 mPa·s | electrical conductivity (303.15 K, x1 = 0.597): 0.0477 S/m | viscosity (303.15 K, x1 = 0.597): 38.6 mPa·s | electrical conductivity (303.15 K, x1 = 0.798): 0.0985 S/m | viscosity (303.15 K, x1 = 0.798): 57.8 mPa·s | electrical conductivity (303.15 K, x1 = 0.89): 0.0843 S/m | viscosity (303.15 K, x1 = 0.89): 124.2 mPa·s | electrical conductivity (303.15 K, x1 = 1): 0.0705 S/m | viscosity (303.15 K, x1 = 1): 235.6 mPa·s | electrical conductivity (313.15 K, x1 = 0.0989): 0.0016 S/m | viscosity (313.15 K, x1 = 0.0989): 4.312 mPa·s | electrical conductivity (313.15 K, x1 = 0.1981): 0.0061 S/m | viscosity (313.15 K, x1 = 0.1981): 5.24 mPa·s | electrical conductivity (313.15 K, x1 = 0.2776): 0.0152 S/m | viscosity (313.15 K, x1 = 0.2776): 8.48 mPa·s | electrical conductivity (313.15 K, x1 = 0.3971): 0.0282 S/m | viscosity (313.15 K, x1 = 0.3971): 12.01 mPa·s | electrical conductivity (313.15 K, x1 = 0.5029): 0.0457 S/m | viscosity (313.15 K, x1 = 0.5029): 18.99 mPa·s | electrical conductivity (313.15 K, x1 = 0.597): 0.063 S/m | viscosity (313.15 K, x1 = 0.597): 26.33 mPa·s | electrical conductivity (313.15 K, x1 = 0.721): 0.0763 S/m | viscosity (313.15 K, x1 = 0.721): 28.66 mPa·s | electrical conductivity (313.15 K, x1 = 0.798): 0.13 S/m | viscosity (313.15 K, x1 = 0.798): 36.8 mPa·s | electrical conductivity (313.15 K, x1 = 0.89): 0.119 S/m | viscosity (313.15 K, x1 = 0.89): 78.2 mPa·s | electrical conductivity (313.15 K, x1 = 1): 0.0957 S/m | viscosity (313.15 K, x1 = 1): 146.2 mPa·s | electrical conductivity (323.15 K, x1 = 0.2776): 0.0204 S/m | viscosity (323.15 K, x1 = 0.2776): 6.42 mPa·s | electrical conductivity (323.15 K, x1 = 0.597): 0.0866 S/m | viscosity (323.15 K, x1 = 0.597): 18.01 mPa·s | electrical conductivity (323.15 K, x1 = 0.798): 0.188 S/m | viscosity (323.15 K, x1 = 0.798): 28.6 mPa·s | electrical conductivity (323.15 K, x1 = 0.89): 0.165 S/m | viscosity (323.15 K, x1 = 0.89): 56.6 mPa·s | electrical conductivity (323.15 K, x1 = 1): 0.14 S/m | viscosity (323.15 K, x1 = 1): 105 mPa·s

COCCOCCn1cc[n+](CCC#N)c1.O=S(=O)([N-]S(=O)(=O)C(F)(F)F)C(F)(F)F + CS(C)=O
electrical conductivity (293.15 K, x1 = 0.0989): 0.002 S/m | viscosity (293.15 K, x1 = 0.0989): 6.1 mPa·s | electrical conductivity (293.15 K, x1 = 0.2776): 0.0093 S/m | viscosity (293.15 K, x1 = 0.2776): 13.52 mPa·s | electrical conductivity (293.15 K, x1 = 0.3971): 0.0202 S/m | viscosity (293.15 K, x1 = 0.3971): 19.5 mPa·s | electrical conductivity (293.15 K, x1 = 0.5029): 0.0321 S/m | viscosity (293.15 K, x1 = 0.5029): 39.8 mPa·s | electrical conductivity (293.15 K, x1 = 0.597): 0.0411 S/m | viscosity (293.15 K, x1 = 0.597): 53.9 mPa·s | electrical conductivity (293.15 K, x1 = 0.721): 0.0589 S/m | viscosity (293.15 K, x1 = 0.721): 64.3 mPa·s | electrical conductivity (293.15 K, x1 = 0.798): 0.0885 S/m | viscosity (293.15 K, x1 = 0.798): 90.8 mPa·s | electrical conductivity (293.15 K, x1 = 0.89): 0.0746 S/m | viscosity (293.15 K, x1 = 0.89): 145.2 mPa·s | electrical conductivity (293.15 K, x1 = 1): 0.0654 S/m | viscosity (293.15 K, x1 = 1): 296 mPa·s | electrical conductivity (303.15 K, x1 = 0.0989): 0.0023 S/m | viscosity (303.15 K, x1 = 0.0989): 4.244 mPa·s | electrical conductivity (303.15 K, x1 = 0.1981): 0.0077 S/m | viscosity (303.15 K, x1 = 0.1981): 5.65 mPa·s | electrical conductivity (303.15 K, x1 = 0.3971): 0.0243 S/m | viscosity (303.15 K, x1 = 0.3971): 13.05 mPa·s | electrical conductivity (303.15 K, x1 = 0.597): 0.051 S/m | viscosity (303.15 K, x1 = 0.597): 33.04 mPa·s | electrical conductivity (303.15 K, x1 = 0.721): 0.0732 S/m | viscosity (303.15 K, x1 = 0.721): 36.5 mPa·s | electrical conductivity (303.15 K, x1 = 0.798): 0.111 S/m | viscosity (303.15 K, x1 = 0.798): 49.7 mPa·s | electrical conductivity (303.15 K, x1 = 1): 0.0831 S/m | viscosity (303.15 K, x1 = 1): 169 mPa·s | electrical conductivity (313.15 K, x1 = 0.0989): 0.0028 S/m | viscosity (313.15 K, x1 = 0.0989): 3.145 mPa·s | electrical conductivity (313.15 K, x1 = 0.1981): 0.0094 S/m | viscosity (313.15 K, x1 = 0.1981): 4.14 mPa·s | electrical conductivity (313.15 K, x1 = 0.2776): 0.0144 S/m | viscosity (313.15 K, x1 = 0.2776): 6.42 mPa·s | electrical conductivity (313.15 K, x1 = 0.3971): 0.031 S/m | viscosity (313.15 K, x1 = 0.3971): 8.55 mPa·s | electrical conductivity (313.15 K, x1 = 0.5029): 0.0518 S/m | viscosity (313.15 K, x1 = 0.5029): 16.92 mPa·s | electrical conductivity (313.15 K, x1 = 0.597): 0.0672 S/m | viscosity (313.15 K, x1 = 0.597): 22.38 mPa·s | electrical conductivity (313.15 K, x1 = 0.721): 0.0977 S/m | viscosity (313.15 K, x1 = 0.721): 24.89 mPa·s | electrical conductivity (313.15 K, x1 = 1): 0.112 S/m | viscosity (313.15 K, x1 = 1): 103.2 mPa·s | electrical conductivity (323.15 K, x1 = 0.0989): 0.0034 S/m | viscosity (323.15 K, x1 = 0.0989): 2.453 mPa·s | electrical conductivity (323.15 K, x1 = 0.2776): 0.0193 S/m | viscosity (323.15 K, x1 = 0.2776): 5 mPa·s | electrical conductivity (323.15 K, x1 = 0.3971): 0.043 S/m | viscosity (323.15 K, x1 = 0.3971): 6.4 mPa·s | electrical conductivity (323.15 K, x1 = 0.5029): 0.0698 S/m | viscosity (323.15 K, x1 = 0.5029): 12.64 mPa·s | electrical conductivity (323.15 K, x1 = 0.597): 0.0919 S/m | viscosity (323.15 K, x1 = 0.597): 16.15 mPa·s | electrical conductivity (323.15 K, x1 = 0.721): 0.134 S/m | viscosity (323.15 K, x1 = 0.721): 17.98 mPa·s | electrical conductivity (323.15 K, x1 = 0.89): 0.175 S/m | viscosity (323.15 K, x1 = 0.89): 37.5 mPa·s | electrical conductivity (323.15 K, x1 = 1): 0.158 S/m | viscosity (323.15 K, x1 = 1): 74.6 mPa·s
